According to US20230017045A1, “PYRIDINE AND PYRIMIDINE CARBOXYLATE HERBICIDES AND METHODS OF USE THEREOF” (Dow AgroSciences LLC, priority 2017, published 2023):
Like-named read-outs stand apart in the source and are kept apart here.

Tested on: test plant species
Experiment: Post-emergent herbicidal activity test (greenhouse, foliar spray, visual growth reduction)
Type: in vivo
Conditions: post-emergence, 336 h, 140 g ai/ha, 14 days after application
Procedure: Post-emergent Test: Seeds or nutlets of the desired test plant species were planted in Sun Gro Metro-Mix® 360 planting mixture, which typically has a pH of 6.0 to 6.8 and an organic matter content of about 30 percent, in plastic pots with a surface area of 64 square centimeters. In some aspects, to ensure good germination and healthy plants, a fungicide treatment and/or other chemical or physical treatment was applied. The plants were grown for 7-21 d in a greenhouse with an approximate 15 h photoperiod which was maintained at 23-29° C. during the day and 22-28° C. during the night. Nutrients and water were added on a regular basis and supplemental lighting was provided with overhead metal halide 1000-Watt lamps as necessary. Plants were used for testing when they reached the first or second true leaf stage. A weighed amount, determined by the highest rate to be tested, of each test compound was placed in a 25 mL glass vial and was dissolved in 4 mL of a 97:3 v/v mixture of acetone and DMSO to obtain concentrated stock solutions. […] The concentrated stock solutions obtained were diluted with 20 mL of an aqueous mixture containing acetone, water, isopropyl alcohol, DMSO, […] crop oil concentrate, and X-77 surfactant in a 48.5:39:10:1.5:1.0:0.02 v/v ratio to obtain spray solutions containing the application rate. Compound requirements are based upon a 12 mL application volume at a rate of 187 liters per hectare (L/ha). Formulated compounds were applied to the plant material with an overhead Mandel track sprayer equipped with […] nozzles calibrated to deliver 187 L/ha over an application area of 0.64 square meters at a spray height of 18 inches (43 cm) above the average plant canopy height. Control plants were sprayed in the same manner with the solvent blank. The treated plants and control plants were placed in a greenhouse as described above and watered by subirrigation to prevent wash-off of the test compounds. After 14 d, the condition of the test plants as compared with that of the nontreated and control plants was determined visually and scored on a scale of 0 to 100 percent where 0 corresponds to no injury and 100 corresponds to complete control. In the reporting of the results, Table A: Percent Growth Reduction Conversion Table was used.

[1] = ALOMY: blackgrass (Alopecurus myosuroides), read-out: Visual Growth Reduction (%) 14 Days After Application, ALOMY
[2] = AMARE: redroot pigweed (Amaranthus retroflexus), read-out: Visual Growth Reduction (%) 14 Days After Application, AMARE
[3] = AVEFA: wild oat (Avena fatua), read-out: Visual Growth Reduction (%) 14 Days After Application, AVEFA
[4] = CHEAL: lambsquarters (Chenopodium album), read-out: Visual Growth Reduction (%) 14 Days After Application, CHEAL
[5] = CIRAR: canada thistle (Cirsium arvense), read-out: Visual Growth Reduction (%) 14 Days After Application, CIRAR
[6] = CYPES: yellow nutsedge (Cyperus esculentus), read-out: Visual Growth Reduction (%) 14 Days After Application, CYPES
[7] = DIGSA: crabgrass (Digitaria sanguinalis), read-out: Visual Growth Reduction (%) 14 Days After Application, DIGSA
[8] = ECHCG: barnyardgrass (Echinochloa crus-galli), read-out: Visual Growth Reduction (%) 14 Days After Application, ECHCG
[9] = KCHSC: kochia (Bassia scoparia), read-out: Visual Growth Reduction (%) 14 Days After Application, KCHSC
[10] = ORYSA: rice (Oryza sativa), read-out: Visual Growth Reduction (%) 14 Days After Application, ORYSA
[11] = SETFA: giant foxtail (Setaria faberi), read-out: Visual Growth Reduction (%) 14 Days After Application, SETFA
[12] = SORVU: grain sorghum (Sorghum vulgare), read-out: Visual Growth Reduction (%) 14 Days After Application, SORVU
[13] = STEME: common chickweed (Stellaria media), read-out: Visual Growth Reduction (%) 14 Days After Application, STEME
[14] = TRZAS: wheat, spring (Triticum aestivum), read-out: Visual Growth Reduction (%) 14 Days After Application, TRZAS
[15] = IPOHE: ivy-leaf morning glory (Ipomoea hederacea), read-out: Visual Growth Reduction (%) 14 Days After Application, IPOHE

Row | SMILES | pest or weed control at 140 g/ha [1] [%] | pest or weed control at 140 g/ha [2] [%] | pest or weed control at 140 g/ha [3] [%] | pest or weed control at 140 g/ha [4] [%] | pest or weed control at 140 g/ha [5] [%] | pest or weed control at 140 g/ha [6] [%] | pest or weed control at 140 g/ha [7] [%] | pest or weed control at 140 g/ha [8] [%] | pest or weed control at 140 g/ha [9] [%] | pest or weed control at 140 g/ha [10] [%] | pest or weed control at 140 g/ha [11] [%] | pest or weed control at 140 g/ha [12] [%] | pest or weed control at 140 g/ha [13] [%] | pest or weed control at 140 g/ha [14] [%] | pest or weed control at 140 g/ha [15] [%]
1 | COC(=O)c1nc(-c2cc(Cl)c(C#N)cc2Cl)ccc1Cl [F50, Methyl 3-chloro-6-(2,5-dichloro-4-cyanophenyl) picolinate] | 0 to 29 | 0 to 29 | 0 to 29 | 60 to 74 | 0 to 29 | 0 to 29 | 0 to 29 | 0 to 29 | 0 to 29 | 0 to 29 | 0 to 29 | 0 to 29 | 0 to 29 | 0 to 29 | 
2 | COC(=O)c1nc(-c2cc(C)c(Cl)cc2Cl)ccc1Cl [F51, Methyl 3-chloro-6-(2,4-dichloro-5-methylphenyl) picolinate] | 0 to 29 | 45 to 59 | 0 to 29 | 45 to 59 | 0 to 29 | 0 to 29 | 0 to 29 | 0 to 29 | 0 to 29 | 0 to 29 | 0 to 29 | 0 to 29 | 0 to 29 | 0 to 29 | 
3 | COC(=O)c1nc(-c2ccc(Cl)cc2Cl)ccc1C [F52, Methyl 6-(2,4-dichlorophenyl)-3-methylpicolinate] | 0 to 29 | 0 to 29 | 0 to 29 | 0 to 29 | 0 to 29 | 0 to 29 | 0 to 29 | 0 to 29 | 0 to 29 | 0 to 29 | 0 to 29 | 0 to 29 | 0 to 29 | 0 to 29 | 
4 | COC(=O)c1nc(-c2ccc(C(F)(F)F)cc2Cl)ccc1C [F53, Methyl 6-(2-chloro-4-(trifluoromethyl)phenyl)-3-methylpicolinate] | 60 to 74 | 95 to 100 | 75 to 84 | 95 to 100 | 95 to 100 | 0 to 29 | 95 to 100 | 0 to 29 | 0 to 29 | 0 to 29 | 0 to 29 | 0 to 29 | 0 to 29 | 0 to 29 | 
5 | O=C(OCc1ccccn1)c1nc(-c2ccc(C(F)(F)F)cc2Cl)ccc1Cl [F54, Pyridin-2-ylmethyl 3-chloro-6-(2-chloro-4-(trifluoromethyl)phenyl)picolinate] | 0 to 29 | 0 to 29 | 0 to 29 | 0 to 29 | 0 to 29 | 0 to 29 | 0 to 29 | 75 to 84 | 95 to 100 | 0 to 29 | 85 to 94 | 95 to 100 | 0 to 29 | 85 to 94 | 95 to 100
6 | COC(=O)c1cccc(-c2ccc(C(F)(F)F)cc2Cl)n1 [F55, Methyl 6-(2-chloro-4-(trifluoromethyl)phenyl)picolinate] | 0 to 29 | 95 to 100 | 0 to 29 | 60 to 74 | 0 to 29 | 0 to 29 | 0 to 29 | 0 to 29 | 0 to 29 | 0 to 29 | 0 to 29 | 0 to 29 | 0 to 29 | 0 to 29 | 30 to 44
7 | COC(=O)c1cc(Cl)cc(-c2ccc(Cl)cc2Cl)n1 [F56, Methyl 4-chloro-6-(2,4-dichlorophenyl) picolinate] | 0 to 29 | 0 to 29 | 0 to 29 | 0 to 29 | 0 to 29 | 0 to 29 | 0 to 29 | 0 to 29 | 0 to 29 | 0 to 29 | 0 to 29 | 0 to 29 | 0 to 29 | 0 to 29 | 0 to 29
8 | COC(=O)c1cc(Cl)cc(-c2ccc(C(F)(F)F)cc2Cl)n1 [F57, Methyl 4-chloro-6-(2-chloro-4-(trifluoromethyl)phenyl)picolinate] | 0 to 29 | 0 to 29 | 0 to 29 | 0 to 29 | 0 to 29 | 0 to 29 | 0 to 29 | 0 to 29 | 0 to 29 | 0 to 29 | 0 to 29 | 0 to 29 | 0 to 29 | 0 to 29 | 0 to 29
9 | COC(=O)c1nc(-c2ccc(OC(F)(F)F)cc2Cl)ccc1Cl [F58, Methyl 3-chloro-6-(2-chloro-4-(trifluoromethoxy)phenyl)picolinate] | 30 to 44 | 95 to 100 | 45 to 59 | 60 to 74 | 95 to 100 | 0 to 29 | 85 to 94 | 0 to 29 | 30 to 44 | 0 to 29 | 75 to 84 | 85 to 94 |  |  | 95 to 100
10 | COC(=O)c1nc(-c2ccc(C#N)cc2Cl)ccc1Cl [F59, methyl 3-chloro-6-(2-chloro-4-cyanophenyl)picolinate] | 0 to 29 | 85 to 94 | 0 to 29 | 60 to 74 | 30 to 44 | 0 to 29 | 60 to 74 | 45 to 59 | 45 to 59 | 0 to 29 | 45 to 59 | 75 to 84 | 0 to 29 | 0 to 29 | 95 to 100
